Reference: patent US20170239323A1, “ORITAVANCIN FORMULATIONS” (The Medicines Company, priority 2016, published 2017)

Columns and labels:
[1] = Double-blind pharmacokinetic study of a single 1200 mg IV dose of oritavancin in healthy volunteers; format: in vivo; settings: human, plasma, healthy subjects, average
Description: A randomized, double-blind, single center cohort study of a new formulation of a single 1200 mg IV dose of oritavancin in healthy volunteers, adjusting infusion time, concentration and reconstitution/administration solutions, of a single 1200 mg intravenous (IV) infusion of oritavancin in healthy adult subjects, was performed. Cohort 1 was administered the current, approved formulation of oritavancin which uses Sterile Water For Injection (SWFI) as the reconstituting agent and D5W for further dilution for a volume of 1000 mL. This infusion was given per the approved label over three hours. Cohort 2 was administered a new formulation for which hydroxypropyl-β-cyclodextrin (HPBCD) was included in the reconstitution diluent and D5W is used for further dilution for a total volume of 250 mL. This formulation was administered over two hours. Cohorts 3, 4, and 5 were administered the same new formulation as Cohort 2 (HPBCD and 250 mL of D5W); however, the infusion was administered over 90, 60, 30 minutes respectively. Two subjects in each of Cohorts 2, 3, 4, and 5 received a placebo infusion of D5W to use as a comparison when reviewing adverse event data. Healthy volunteer subjects providing informed consent and meeting all study eligibility criteria were randomized in the study and received one 1200 mg dose of IV oritavancin or placebo (cohorts 2-5 only).
COHORT 1: At the time of use, each vial was reconstituted by adding 40 mL of Sterile Water or for Injection, (“SWFI,” United States Pharmacopeia) to each 400 mg vial of oritavancin. Vials reconstituted in this manner gave a 10 mg/mL solution. After reconstitution, the compositions were combined and further diluted in 5% dextrose in water (D5W) to provide a total volume of approximately 1000 mL. At each dosing, 1200 mg of oritavancin in 1000 mL total of diluent was administered at a constant rate IV infusion over 3 hours via a single dedicated peripheral IV line (n=6).
(§1) COHORT 2: At the time of use, each vial was reconstituted by adding 4 mL of SWFI and 4 mL of 20% (w/v) HPBCD solution, to each 400 mg vial of oritavancin. Vials reconstituted in this manner provided a 50 mg/mL oritavancin solution. After reconstitution, the compositions were combined and further diluted in 5% dextrose in water (D5W) to provide a total volume of approximately 250 mL. At each dosing, 1200 mg of oritavancin in 250 mL of diluent was administered as a constant rate IV infusion over 2 hours via a single dedicated peripheral IV line (n=8) or a 2 hour placebo IV infusion of 250 mL of D5W (n=2).
as §1, with “3:” for “2:”, “90 minutes” for “2 hours”, “90 minute” for “2 hour”, “placebo” for “placebo IV”
as §1, with “4:” for “2:”, “60 minutes” for “2 hours”, “60 minute” for “2 hour”, “placebo” for “placebo IV”
COHORT 5: At the time of use, each vial was reconstituted by adding 4 mL of SWFI and 4 mL of 20% (w/v) HPBCD solution, to each 400 mg vial of oritavancin. […]

[2] = Reconstituted oritavancin/HPCD solution diluted in 0.9% saline: pH and observation for precipitation; format: physicochemical; settings: for pH: RT
[3] = Cohort 1: 1200 mg IV, approved formulation (SWFI, no HPBCD), D5W 1000 mL, 3 h infusion
[4] = Cohort 2: 1200 mg IV, HPBCD formulation, D5W 250 mL, 2 h infusion
[5] = Cohort 3: 1200 mg IV, HPBCD formulation, D5W 250 mL, 1.5 h infusion
[6] = Cohort 4: 1200 mg IV, HPBCD formulation, D5W 250 mL, 1 h infusion
[7] = Cohort 5: 1200 mg IV, HPBCD formulation, D5W 250 mL, 0.5 h infusion
[8] = Cohort 6: 1200 mg IV, HPBCD formulation, NS 250 mL, 1 h infusion
[9] = 20% w/v HPCD reconstitution diluted to 5 mg/mL in 0.9% saline, rechecked one month later
[10] = 50% HPCD reconstitution diluted to 5 mg/mL in 0.9% saline, rechecked one month later

SMILES: CN[C@H](CC(C)C)C(=O)N[C@H]1C(=O)N[C@@H](CC(N)=O)C(=O)N[C@H]2C(=O)N[C@H]3C(=O)N[C@H](C(=O)N[C@H](C(=O)O)c4cc(O)cc(O)c4-c4cc3ccc4O)[C@H](O[C@H]3C[C@](C)(N)[C@@H](O)[C@H](C)O3)c3ccc(c(Cl)c3)Oc3cc2cc(c3O[C@@H]2O[C@H](CO)[C@@H](O)[C@H](O)[C@H]2O[C@H]2C[C@](C)(NCc3ccc(-c4ccc(Cl)cc4)cc3)[C@@H](O)[C@H](C)O2)Oc2ccc(cc2Cl)[C@H]1O [Oritavancin]
- AUC(0-inf) [1, 3]: 3680 µg·h/mL
- Cmax [1, 3]: 183 µg/mL
- AUC(0-inf) [1, 4]: 2710 µg·h/mL
- Cmax [1, 4]: 153 µg/mL
- AUC(0-inf) [1, 5]: 2850 µg·h/mL
- Cmax [1, 5]: 177 µg/mL
- AUC(0-inf) [1, 6]: 2870 µg·h/mL
- Cmax [1, 6]: 202 µg/mL
- AUC(0-inf) [1, 7]: 3180 µg·h/mL
- Cmax [1, 7]: 199 µg/mL
- AUC(0-inf) [1, 8]: 2960 µg·h/mL
- Cmax [1, 8]: 206 µg/mL
- pH ([2]; 20% w/v HPCD reconstitution diluted in 0.9% saline: oritavancin 5 mg/mL, HPCD 2% w/v, 0 hr): 4.17
- pH ([2]; 20% w/v HPCD reconstitution diluted in 0.9% saline: oritavancin 5 mg/mL, HPCD 2% w/v, 0.08 hr): 4.17
- pH ([2]; 20% w/v HPCD reconstitution diluted in 0.9% saline: oritavancin 5 mg/mL, HPCD 2% w/v, 0.5 hr): 4.17
- pH ([2]; 20% w/v HPCD reconstitution diluted in 0.9% saline: oritavancin 5 mg/mL, HPCD 2% w/v, 1 hr): 4.17
- pH ([2]; 20% w/v HPCD reconstitution diluted in 0.9% saline: oritavancin 5 mg/mL, HPCD 2% w/v, 24 hr): 4.17
- pH ([2]; 20% w/v HPCD reconstitution diluted in 0.9% saline: oritavancin 5 mg/mL, HPCD 2% w/v, 720 hr): 4.32
- appearance / precipitation ([2]; 20% w/v HPCD reconstitution diluted to 5 mg/mL in 0.9% saline, for 24 hours): remained clear and colorless without any precipitation
- appearance [2, 9]: clear and colorless
- pH change [2, 9]: increased slightly
- appearance / precipitation ([2]; 20% w/v HPCD reconstitution diluted to 6 mg/mL in 0.9% saline): remained clear and colorless without any visible precipitation
- time for which no precipitation was observed ([2]; 20% w/v HPCD reconstitution pH adjusted (up to 7), diluted to 5 mg/mL in 0.9% saline): at least 12 hours
- appearance ([2]; 20% w/v HPCD reconstitution, diluted to 5 mg/mL in 0.9% saline, pH 6.5 and above, for 24 hours): maintained clear and colorless
- appearance / precipitation ([2]; 50% HPCD reconstitution diluted to 5 mg/mL in 0.9% saline, for 24 hours): remained clear and colorless without any precipitation
- appearance [2, 10]: clear and colorless
- pH change [2, 10]: increased slightly
- pH ([2]; 50% w/v HPCD reconstitution diluted in 0.9% saline: oritavancin 5 mg/mL, HPCD 5% w/v, 0 hr): 4.14
- pH ([2]; 50% w/v HPCD reconstitution diluted in 0.9% saline: oritavancin 5 mg/mL, HPCD 5% w/v, 0.08 hr): 4.14
- pH ([2]; 50% w/v HPCD reconstitution diluted in 0.9% saline: oritavancin 5 mg/mL, HPCD 5% w/v, 0.5 hr): 4.14
- pH ([2]; 50% w/v HPCD reconstitution diluted in 0.9% saline: oritavancin 5 mg/mL, HPCD 5% w/v, 1 hr): 4.14
- pH ([2]; 50% w/v HPCD reconstitution diluted in 0.9% saline: oritavancin 5 mg/mL, HPCD 5% w/v, 24 hr): 4.15
- pH ([2]; 50% w/v HPCD reconstitution diluted in 0.9% saline: oritavancin 5 mg/mL, HPCD 5% w/v, 720 hr): 4.26
- time for which no precipitation was observed ([2]; 50% w/v HPCD reconstitution pH adjusted (up to 6.3), diluted to 5 mg/mL in 0.9% saline): at least 1 hour
- time for which no precipitation was observed ([2]; 50% w/v HPCD reconstitution pH adjusted (up to 7), diluted to 5 mg/mL in 0.9% saline): at least 12 hours
- appearance ([2]; 50% w/v HPCD reconstitution pH adjusted, diluted to 5 mg/mL in 0.9% saline, at 24 hours): Some discoloration
- appearance ([2]; pH 5.7): Some discoloration
- time for which solution maintains clarity ([2]; pH adjusted to pH 7 in saline using NaOH): at least 12 hours
- stability in solution ([2]; reconstituted in 20% or 50% w/v HPCD, diluted into saline at 5 mg/mL): does not fall out of solution for at least one month
